Data taken from patent US11992475B1, “Application of Z-ligustilide in resisting rotaviruses” (GUANGDONG MEDICAL UNIVERSITY, priority 2023, dated 2024).

Legend:
[1] = system: RV (Wa strain RV); test: Effect of Z-ligustilide in resisting RV adsorption (MTT, MA104 cells); type: cell-based, Rotavirus (RV); details: for inhibition rate against RV (resisting adsorption): drug 2 h before virus, 48 h
Description: The drug solution is added in a 96-well culture plate of MA104 cells that grow to a single layer, and each drug solution is added in 6 wells at an amount of 100 μL/well. An equal volume of ribavirin is added to the positive control group, and only an equal volume of DMEM culture solution (without serum) is added to the normal cell control group and the viral control group. Incubation is conducted in 5% CO2 at 37° C. for 2 h. The drug solution is sucked out. Except the normal cell control group, 100TCID50 virus is added (the virus acts with 10 μg/mL pancreatin at 37° C. for 30 min) at an amount of 100 μL/well. Incubation is conducted in 5% CO2 at 37° C. for 2 h. The virus is sucked out, the cell maintenance medium is added at an amount of 200 μL/well. Incubation is conducted in 5% CO2 at 37° C. for continuous observation. After culture for 48 h, an MTT kit is used for detection. 1/10 volume of MTT solution is added in each well and incubated in an incubator. After 4 h, the supernatant is sucked out, DMSO is added, and the absorbance is measured and recorded at a wavelength of 490 nm. The experiment is repeated for 3 times.
(§1) The formula of the viral inhibition rate is: {(Adrug group−Avirus group)/(Anormal group−Avirus group)×100%}

[2] = system: structural protein VP6 of RV; test: Gene expression level of structural protein VP6 of RV in RV-infected MA104 cells (real time PCR); type: cell-based, Rotavirus (RV), Wa strain; details: for VP6 expression level compared with the RV group: 48 h, GAPDH internal reference
Description: (1) To further verify whether Z-ligustilide has an effect of inhibiting RV synthesis, after Z-ligustilide inhibits RV synthesis for 48 h, drug groups of low, medium and high concentrations, the ribavirin group, the N group and the RV group are selected, the supernatant is removed, the solution is washed twice with PBS, 1 ml of Trizol reagent is added, and then the solution is collected into a 1.5 mL enzyme-free EP tube after standing for 5 min. 200 μL of chloroform is added in the tube. After vortex oscillation for 15 s, the solution is stood at room temperature for 3 min, and centrifuged (4° C., 12000 r/min, 15 min). The centrifuged sample is divided into three layers: a colorless upper layer, a white middle layer and a red lower layer.
(2) The supernatant is carefully sucked into a new 1.5 mL enzyme-free EP tube (with a volume of about 500 μL), and an equal volume of pre-cooled isopropanol is added. The solution is shaken up and down violently, mixed well, stood at 4° C. for 10 min, and centrifuged (4° C., 12000 r/min, 10 min).
(3) After centrifugation, white precipitate can be seen at the bottom of the EP tube. The supernatant is removed, and the precipitate is retained. 1 mL of the prepared 75% ethanol solution (prepared from anhydrous ethanol and enzyme-free water at a ratio of 3:1) is added, shaken and mixed well, and centrifuged (4° C., 12000 r/min, 5 min). The supernatant is discarded, and the solution is stood at room temperature for 15-20 min for drying.
(4) After drying, 20 μL of DEPC water is added in the EP tube, and the tube wall is gently blown to dissolve RNA. The RNA concentration of the sample is determined by a NanoDrop micro ultraviolet spectrophotometer, and then the sample can be used directly for the experiment or stored at −80° C. for later use.
A reaction mixture is prepared on ice according to the following components in a reaction volume of 20 μL in accordance with the instructions of Evo M-MLV RT Kit with gDNA Clean for qPCR II. The consumables used in the experiment are all Axygen enzyme-free consumables.
Reaction conditions: 42° C. 2 min, 4° C.
The reaction solution is prepared according to the following table, and the reverse transcription reaction is performed.
Reaction conditions: 37° C. 15 min, 85° C. 5 sec, 4° C.
Real time quantitative PCR is used to detect the control group and the RVWa strain-infected group by SYBR Green I fluorescent labeling. SYBR® Green Premix Pro Taq HS qPCR Kit II is used, and GAPDH is selected as the internal reference. In the experiment, dedicated real-time eight-row PCR tubes for Axygen are used for preparing a real-time fluorescence quantitative PCR amplification reaction system according to the following table, and the reaction solution is prepared on ice (the total reaction system is 10 μL).

[3] = system: RV (Wa strain RV); test: Effect of Z-ligustilide in directly killing RV (MTT, MA104 cells); type: cell-based, Rotavirus (RV); details: for inhibition rate against RV (directly killing): drug mixed with virus 2 h, 48 h
Description: The drug is mixed with 100TCID50 virus solution (the virus acts with 10 μg/mL pancreatin for 30 min) at an equal volume to act for 2 h. After the cells are washed twice with PBS, the cells are added in a 96-well culture plate of MA104 cells that grow to a single layer. The same operation as above is conducted for ribavirin and RV in the positive control group, and only an equal volume of DMEM is added to the normal cell control group and the viral control group. Incubation is conducted in 5% CO2 at 37° C. for 2 h, the mixed solution is sucked out, and the cell maintenance medium is added at an amount of 100 μL/well. Incubation is conducted in 5% CO2 at 37° C. for continuous observation. After continuous culture for 48 h, an MTT kit is used for detection. 1/10 volume of MTT solution is added in each well and incubated in an incubator. After 4 h, the supernatant is sucked out, DMSO is added, and the absorbance is measured and recorded at a wavelength of 490 nm. The experiment is repeated for 3 times. The viral inhibition rate of the drug is calculated. The formula of the viral inhibition rate is: {(Adrug group−Avirus group)/(Anormal group−Avirus group)×100%}

[4] = system: MA104 cells; test: Toxicity of Z-ligustilide to MA104 cells (MTT assay); type: cell-based; details: 48 h
Description: According to the common drug concentration range of Z-ligustilide, the cytotoxicity pre-experiment is performed in the range of 1-100 μM in this experiment. The MA104 cells at the logarithmic phase are observed under a microscope, the cellular morphology is uniform and full with clear edges, and when the number reaches 80%, digestion, centrifugation and re-suspension are conducted. After further dilution, 10 μl of the suspension is taken on a blood cell counting plate to count and calculate the required cell volume. Then, the cells are laid in a 96-well plate, 100 μl of cell suspension is added in each well, and the cell density is 8×10^4 cells/mL. When the cells adhere to the wall to form a single layer, the drug group is administered, and the normal group is added with an equal volume of DMEM (without serum). After incubation for 48 h, the cytotoxicity of Z-ligustilide is detected by MTT reagent. 1/10 volume of MTT solution is added in each well and incubated in an incubator. After 4 h, the solution in the wells is sucked out, 150 μL of DMSO is added in each well, and the absorbance is measured and recorded at a wavelength of 490 nm under the condition of oscillation for 30 s.
The formula of the relative survival rate of the cells is: {(Aexperimental group−Ablank)/(Acontrol group−Ablank)×100%}

[5] = system: RV (Wa strain RV); test: Effect of Z-ligustilide in resisting RV synthesis (MTT, MA104 cells); type: cell-based, Rotavirus (RV); details: for inhibition rate against RV (resisting biosynthesis): drug after virus, 48 h
Description: as §1
100TCID50 virus solution (the virus acts with 10 μg/mL pancreatin for 30 min) is added in a 96-well culture plate of MA104-2 cells that grow to a single layer, at an amount of 100 μL/well. The cells have been washed twice with PBS. A normal cell control group is set, and added with an equal volume of DMEM culture solution. Incubation is conducted in 5% CO2 at 37° C. for 2 h, the virus solution is sucked out, and drug solution and ribavirin of different concentrations are added respectively at an amount of 100 μL/well. A viral control group is set, and only added with the cell maintenance medium at an amount of 100 μL/well. Incubation is conducted in 5% CO2 at 37° C. for continuous observation. After continuous culture for 48 h, an MTT kit is used for detection. 1/10 volume of MTT solution is added in each well and incubated in an incubator. After 4 h, the supernatant is sucked out, DMSO is added, and the absorbance is measured and recorded at a wavelength of 490 nm. The experiment is repeated for 3 times. The viral inhibition rate of the drug is calculated.

[6] = 1st of six values printed for 65-90 μM
[7] = 2nd of six values printed for 65-90 μM
[8] = 3rd of six values printed for 65-90 μM
[9] = 4th of six values printed for 65-90 μM
[10] = 5th of six values printed for 65-90 μM
[11] = 6th of six values printed for 65-90 μM

CCC/C=C1\OC(=O)C2=C1CCC=C2 [Z-ligustilide]
inhibition rate against RV (resisting adsorption) [1, 6]: 4.85% | inhibition rate against RV (resisting adsorption) [1, 7]: 4.55% | inhibition rate against RV (resisting adsorption) [1, 8]: 1.14% | inhibition rate against RV (resisting adsorption) [1, 9]: 3.95% | inhibition rate against RV (resisting adsorption) [1, 10]: 3.01% | inhibition rate against RV (resisting adsorption) [1, 11]: 4.69% | effect of resisting RV adsorption ([1]; 65-90 μM): no obvious effect | maximum inhibition rate (resisting adsorption) ([1]; within 65-90 μM): about 4.85% | VP6 expression level compared with the RV group ([2]; 75 μM): significantly decreased | VP6 expression level compared with the RV group ([2]; 80 μM): significantly decreased | VP6 expression level compared with the RV group ([2]; 85 μM): significantly decreased | concentration at which VP6 expression is inhibited most significantly ([2]; among 75 μM, 80 μM and 85 μM): 75 µM | inhibition rate against RV (directly killing) [3, 6]: 2.32% | inhibition rate against RV (directly killing) [3, 7]: 3.25% | inhibition rate against RV (directly killing) [3, 8]: 0.93% | inhibition rate against RV (directly killing) [3, 9]: 0.4% | inhibition rate against RV (directly killing) [3, 10]: 6.45% | inhibition rate against RV (directly killing) [3, 11]: 5.89% | effect of directly killing RV ([3]; 65-90 μM): no obvious effect | drug toxicity to the cells ([4]; 60-95 μM): no drug toxicity | cell viability versus the normal group ([4]; 65-90 μM): no significant difference | average survival rate ([4]; drug concentration 60-95 μM): more than 95% | effect of inhibiting RV biosynthesis [5]: has an effect of inhibiting RV biosynthesis | inhibition rate against RV (resisting biosynthesis) ([5]; 80 µM, without statistical difference from the ribavirin group): 64.21% | inhibition of rotavirus biosynthesis ([5]; 70-85 μM): can effectively inhibit rotavirus biosynthesis | inhibition rate against RV (resisting biosynthesis) ([5]; 70-85 μM): more than 50%
